Experimental data reported in ChEMBL document CHEMBL1201862, “PubChem BioAssay data set” (2004).
Several values for one entry are separate records, joined by “and”; a condition that tells them apart may be missing. Equal values may be shown once.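 Grown in 96-well plates, cells were treated for 48 hours with each compound at five concentrations. Insufficient inhibition: endpoint recorded as highest concentration tested. GI50 is the concentration that inhibits growth by half.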 Activity calls are given as the source filed them. Rule as the data show it: active = GI50 up to about 1.1 µM and inactive = higher.

What was measured:
Assay in all cases: NCI-60 cell line screen, 48 h
A498 = system: A498
BT-549 = system: BT-549
DLD-1 = system: DLD-1
DMS-114 = system: DMS-114
DMS-273 = system: DMS-273
DU-145 = system: DU-145
HCC 2998 = system: HCC 2998
HOP-18 = system: HOP-18
HOP-62 = system: HOP-62
KM-20L2 = system: KM-20L2
LXFL 529 = system: LXFL 529
M14 = system: M14
M19-MEL = system: M19-MEL
MCF7 = system: MCF7
MDA-MB-231 = system: MDA-MB-231
MDA-N = system: MDA-N
Malme-3M = system: Malme-3M
NCI/ADR-RES = system: NCI/ADR-RES
RXF 631 = system: RXF 631
SF-295 = system: SF-295
SK-MEL-28 = system: SK-MEL-28
SN12C = system: SN12C
SNB-19 = system: SNB-19
SNB-75 = system: SNB-75
SNB-78 = system: SNB-78
T47D = system: T47D
U-251 = system: U-251
UACC-62 = system: UACC-62
UO-31 = system: UO-31
XF498 = system: XF498

Measured: GI50

CN(C)C(=S)SSC(=S)N(C)C [THIRAM]
active: DMS-114 0.124 µM | DMS-273 0.285 µM | M19-MEL 0.581 µM
inactive: A498 45.8 µM and > 60 µM | BT-549 17.2 µM and 14.2 µM | DLD-1 2.59 µM | DU-145 47.1 µM and 37.7 µM | HCC 2998 16.7 µM and 29.3 µM | HOP-18 > 100 µM | HOP-62 > 67.9 µM | KM-20L2 1.64 µM | LXFL 529 1.98 µM | M14 17.3 µM and 20.6 µM | MCF7 20.8 µM and 17.7 µM | MDA-MB-231 16.8 µM and 20.2 µM | MDA-N 19.1 µM and 14.1 µM | Malme-3M 20.2 µM and 12.4 µM | NCI/ADR-RES 17.2 µM | RXF 631 42.2 µM | SF-295 21 µM and 28.6 µM | SK-MEL-28 13 µM and 23.8 µM | SN12C 36.4 µM and 24.3 µM | SNB-19 > 57.8 µM and 54.6 µM | SNB-75 28.1 µM and 36 µM | SNB-78 > 75.5 µM | T47D 26.2 µM and 18.3 µM | U-251 14.3 µM and 17.9 µM | UACC-62 3.52 µM and 2.3 µM | UO-31 > 46.5 µM and 31.9 µM | XF498 4.48 µM
